What all share (format): cell-based, human
The subject of assay [1] is KRAS G12C in NCI-H358 cells. Nature of the assay: pERK inhibition assay, NCI-H358. The conditions noted are these: Homo sapiens, 4 hours incubation. On the procedure: (§1) This assay is to measure the ability of test compounds in inhibiting the phosphorylation of ERK, the downstream signaling of KRAS G12C in NCI-H358 cells, KRAS G12D in AGS cells, and KRAS G12V in SW620. NCI-H358 (ATCC-CRL5807) cells, AGS (ATCC-CRL-1739) cells, SW620 (ATCC-CCL-227) cells were all grown and maintained using RPMI-1640 medium (Thermo Fisher Scientific) with 10% fetal bovine serum and 1% penicillin/streptomycin. On the day prior to compound addition, cells were plated in tissue culture-treated 96 well plates (Corning-3699) at a density of 30,000 cell/well, 20,000 cell/well, 30,000 cell/well for NCI-H358, AGS and SW620 respectively, and allowed for attachment overnight. Diluted compounds were then added in a final concentration of 0.5% DMSO. After 4 hours of incubation, the medium was removed, 100 μL of 4% formaldehyde was added, and the assay plates were incubated at room temperature for 20 minutes. The plates were then washed once with phosphate buffered saline (PBS), and permeabilized with 100 μL of chilled methanol for 10 minutes. Non-specific antibody binding to the plates was blocked using 50 μL 1×BSA blocking buffer (Thermo-37520, 10-fold dilution by Phosphate-Buffered Saline Tween (PBST) for at least 1 hour at room temperature. The amount of phosphor-ERK was determined using an antibody specific for phosphorylated form of ERK. Primary antibody (pERK, CST-4370, Cell Signaling Technology) was diluted 1:300 in blocking buffer, with 50 μL aliquoted to each well, and incubated overnight at 4° C. Cells were washed five times for 5 minutes with PBST. Secondary antibody (HRP-linked anti-rabbit IgG, CST-7074, Cell Signaling Technology) was diluted 1:1000 in blocking buffer, and 50 μL was added to each well and incubated 1-2 hours at room temperature. Cells were washed 5 times for 5 minutes with PBST, 100 μL TMB ELISA substrate (abcam-ab171523) were added and gently shake for 20 minutes. 50 μL stop solution (abcam-ab171529) were added, and then read the signal (OD450) by EnVision. IC50 was determined by fitting a 4-parameter sigmoidal concentration response model.

Another assay relates to KRAS G12D in AGS cells. The experiment in a line: pERK inhibition assay, AGS. Particulars: Homo sapiens, 4 hours incubation. On the procedure: as §1
A further assay has as its system NCI-H358 cells. Nature of the assay: Cell viability assay, NCI-H358. Particulars: Homo sapiens, NCI-H358, 72 hours, Cell Counting Kit-8, read-out: G12C IC50. The protocol:
(§2) The purpose of this cellular assay was to determine the effects of test compounds on the proliferation of human cancer cell lines NCI-H358 (ATCC-CRL5807) cells, AGS (ATCC-CRL-1739) cells, SW620 (ATCC-CCL-227) over a 3-day treatment period by quantifying the amount of NADPH present at endpoint using Cell Counting Kit-8. Cells were seeded at 5,000 cells/well (NCI-H358), 2,000 cells/well (AGS) 2,000 cells/well (SW620) in 96-well assay plates (Corning-3699) and incubated overnight. On the day of the assay, diluted compounds were then added in a final concentration of 0.5% DMSO. After 72 hours incubation, a tenth of the volume of cell counting kit 8(Dnjindo-CK04) was added into each well. Read the signal (OD450 minus OD650) using EnVision after 2 hours incubation. IC50 was determined by fitting a 4-parameter sigmoidal concentration response model.
(In general: Formazan colour is commonly taken as a measure of viable cells.)

Another assay relates to KRAS G12V in SW620. The experiment in a line: pERK inhibition assay, SW620. Particulars: Homo sapiens, SW-620, SW620 cells, 4 hours incubation. The protocol:
as §1

The next assay has as its system SW620 cells. The experiment in a line: Cell viability assay, SW620. The conditions noted are these: Homo sapiens, SW-620, SW620, 72 hours, Cell Counting Kit-8, read-out: G12V IC50. On the procedure: as §2
The subject of another assay is AGS cells. The experiment in a line: Cell viability assay, AGS. The conditions noted are these: Homo sapiens, 72 hours, Cell Counting Kit-8, read-out: G12D IC50. On the procedure:
as §2

Turning to `C#CC1CC(C(=O)N(C)[C@H](C(=O)N[C@H]2Cc3cc(O)cc(c3)-c3ccc4c(c3)c(c(-c3cccnc3[C@H](C)OC)n4CC)CC(C)(C)COC(=O)[C@@H]3CCCN(N3)C2=O)C(C)C)C1` (stereo partly drawn) [Example 4, N-[(1S)-1-[[(8S,14S)-22-ethyl-4-hydroxy-(21M)-21-[2-[(1S)-1-methoxyethyl]-3-pyridyl]-18,18-dimethyl-9,15-dioxo-16-oxa-10,22,28-triazapentacyclo[18.5.2.12,6.110,14.023,27]nonacosa-1(26),2,4,6(29),20,23(27),24-heptaen-8-yl]carbamoyl]-2-methyl-propyl]-3-ethynyl-N-methyl-cyclobutanecarboxamide], the IC50 – broadly, the concentration that gives 50% inhibition – in assay [1] amounted to 42 nM; in the assay with KRAS G12D in AGS cells it was 297 nM; with NCI-H358 cells, 30 nM; in the assay on KRAS G12V in SW620 it was 51 nM; in the assay on SW620 cells, 162 nM.

On to `CCn1c(-c2cccnc2[C@H](C)OC)c2c3cc(ccc31)-c1cc(O)cc(c1)C[C@H](NC(=O)[C@H](C(C)C)N(C)C(=O)[C@H]1CCN(C(=O)[C@@H](F)Cl)C1)C(=O)N1CCC[C@H](N1)C(=O)OCC(C)(C)C2` (atropisomer, axis not shown; (M)) [Example 1, (3S)-1-[(2S)-2-chloro-2-fluoro-acetyl]-N-[(1S)-1-[[(8S,14S)-22-ethyl-4-hydroxy-(21M)-21-[2-[(1S)-1-methoxyethyl]-3-pyridyl]-18,18-dimethyl-9,15-dioxo-16-oxa-10,22,28-triazapentacyclo[18.5.2.12,6.110,14.023,27]nonacosa-1(26),2,4,6 (29),20,23 (27),24-heptaen-8-yl]carbamoyl]-2-methyl-propyl]-N-methyl-pyrrolidine-3-carboxamide], for which the results for the IC50 (in assay [1]; with KRAS G12D in AGS cells; in the assay with NCI-H358 cells) were 8 nM, 469 nM and 4 nM, respectively.

On to `CCn1c(-c2cccnc2[C@H](C)OC)c2c3cc(ccc31)-c1cc(O)cc(c1)C[C@H](NC(=O)[C@H](C(C)C)N(C)C(=O)[C@H]1CCN(C(=O)C34CC3C4)C1)C(=O)N1CCC[C@H](N1)C(=O)OCC(C)(C)C2` (stereo partly drawn) [Example 11, (3S)-1-(bicyclo[1.1.0]butane-1-carbonyl)-N-[(1S)-1-[[(8S,14S)-22-ethyl-4-hydroxy-(21M)-21-[2-[(1S)-1-methoxyethyl]-3-pyridyl]-18,18-dimethyl-9,15-dioxo-16-oxa-10,22,28-triazapentacyclo[18.5.2.12,6.110,14.023,27]nonacosa-1(26),2,4,6(29),20,23(27),24-heptaen-8-yl]carbamoyl]-2-methyl-propyl]-N-methyl-pyrrolidine-3-carboxamide], for which the IC50 in assay [1] is 83 nM; with KRAS G12D in AGS cells it was 164 nM; in the assay with NCI-H358 cells, 118 nM; with KRAS G12V in SW620, 380 nM; in the assay on SW620 cells, 161 nM.

As for `CCn1c(-c2cccnc2[C@H](C)OC)c2c3cc(ccc31)-c1cc(O)cc(c1)C[C@H](NC(=O)[C@H](C(C)C)N(C)C(=O)[C@H]1CCN(CC#N)C1)C(=O)N1CCC[C@H](N1)C(=O)OCC(C)(C)C2` (atropisomer, axis not shown; (M)) [Example 7, (3S)-1-(cyanomethyl)-N-[(1S)-1-[[(8S,14S)-22-ethyl-4-hydroxy-(21M)-21-[2-[(1S)-1-methoxyethyl]-3-pyridyl]-18,18-dimethyl-9,15-dioxo-16-oxa-10,22,28-triazapentacyclo[18.5.2.12,6.110,14.023,27]nonacosa-1(26),2,4,6(29),20,23(27),24-heptaen-8-yl]carbamoyl]-2-methyl-propyl]-N-methyl-pyrrolidine-3-carboxamide], the results for the IC50 (in assay [1]; with KRAS G12D in AGS cells) were 513 nM and 236 nM, respectively.

Consider `CCn1c(-c2cccnc2[C@H](C)OC)c2c3cc(ccc31)-c1csc(n1)C[C@H](NC(=O)[C@H](C(C)C)N(C)C(=O)[C@H]1CCN(C(=O)[C@H](F)Cl)C1)C(=O)N1CCC[C@H](N1)C(=O)OCC(C)(C)C2` (atropisomer, axis not shown; (M)) [Example 17, (3S)-1-[(2R)-2-chloro-2-fluoro-acetyl]-N-[(1S)-1-[[(7S,13S)-21-ethyl-(20M)-20-[2-[(1S)-1-methoxyethyl]-3-pyridyl]-17,17-dimethyl-8,14-dioxo-15-oxa-4-thia-9,21,27,28-tetrazapentacyclo[17.5.2.12,5.19,13.022,26]octacosa-1(25),2,5(28),19,22(26),23-hexaen-7-yl]carbamoyl]-2-methyl-propyl]-N-methyl-pyrrolidine-3-carboxamide], for which the IC50 in assay [1] was determined as 23 nM; in the assay with AGS cells, 1130 nM; with NCI-H358 cells, 6 nM; in the assay with KRAS G12V in SW620 it was 124 nM; with SW620 cells, 449 nM.

Consider `C#CCN1CC[C@H](C(=O)N(C)[C@H](C(=O)N[C@H]2Cc3cc(O)cc(c3)-c3ccc4c(c3)c(c(-c3cccnc3[C@H](C)OC)n4CC)CC(C)(C)COC(=O)[C@@H]3CCCN(N3)C2=O)C(C)C)C1` (atropisomer, axis not shown; (M)) [Example 6, (3S)-N-[(1S)-1-[[(8S,14S)-22-ethyl-4-hydroxy-(21M)-21-[2-[(1S)-1-methoxyethyl]-3-pyridyl]-18,18-dimethyl-9,15-dioxo-16-oxa-10,22,28-triazapentacyclo[18.5.2.12,6.110,14.023,27]nonacosa-1(26),2,4,6(29),20,23(27),24-heptaen-8-yl]carbamoyl]-2-methyl-propyl]-N-methyl-1-prop-2-ynyl-pyrrolidine-3-carboxamide], for which the IC50 with NCI-H358 cells is 797 nM.

As for `CCn1c(-c2cccnc2[C@H](C)OC)c2c3cc(ccc31)-c1cc(O)cc(c1)C[C@H](NC(=O)[C@H](C(C)C)N(C)C(=O)C1CC(C#Cc3ccccn3)C1)C(=O)N1CCC[C@H](N1)C(=O)OCC(C)(C)C2` (stereo partly drawn) [Example 13, N-[(1S)-1-[[(8S,14S)-22-ethyl-4-hydroxy-(21M)-21-[2-[(1S)-1-methoxyethyl]-3-pyridyl]-18,18-dimethyl-9,15-dioxo-16-oxa-10,22,28-triazapentacyclo[18.5.2.12,6.110,14.023,27]nonacosa-1(26),2,4,6(29),20,23(27),24-heptaen-8-yl]carbamoyl]-2-methyl-propyl]-N-methyl-3-[2-(2-pyridyl)ethynyl]cyclobutanecarboxamide], the IC50 came out at 189 nM in assay [1], 66 nM in the assay on NCI-H358 cells, 274 nM with KRAS G12V in SW620 and 328 nM in the assay on SW620 cells.

`CCn1c(-c2cccnc2[C@H](C)OC)c2c3cc(ccc31)-c1cc(O)cc(c1)C[C@H](NC(=O)[C@H](C(C)C)N(C)C(=O)C1CC(C(=O)C=S(C)(C)=O)C1)C(=O)N1CCC[C@H](N1)C(=O)OCC(C)(C)C2` (stereo partly drawn) [Example 8, 3-[2-[dimethyl(oxo)-λ^6-sulfanylidene]acetyl]-N-[(1S)-1-[[(8S,14S)-22-ethyl-4-hydroxy-(21M)-21-[2-[(1S)-1-methoxyethyl]-3-pyridyl]-18,18-dimethyl-9,15-dioxo-16-oxa-10,22,28-triazapentacyclo[18.5.2.12,6.110,14.023,27]nonacosa-1(26),2,4,6(29),20,23(27),24-heptaen-8-yl]carbamoyl]-2-methyl-propyl]-N-methyl-cyclobutanecarboxamide]: the IC50 in assay [1] was found to be 436 nM.

The values are drawn from patent US20250163072A1, “MACROCYCLIC COMPOUNDS FOR THE TREATMENT OF CANCER” (Hoffmann-La Roche Inc., priority 2021, published 2025).
